{"source": "paper PMC5069304", "about": "(Clinical Pharmacokinetics, 2016)", "key": {"[1]": {"assay": "Exposure assessment for dose proportionality, phase II dose-finding trial", "type": "in vivo, human"}, "[2]": {"assay": "Population pharmacokinetic analysis of plasma liraglutide", "type": "in vivo, human"}, "[3]": {"settings": "60 kg subject vs reference subject weighing 100 kg"}, "[4]": {"settings": "234 kg subject vs reference subject weighing 100 kg"}}}
{"smiles": "CCCCCCCCCCCCCCCC(=O)N[C@@H](CCC(=O)NCCCC[C@H](NC(=O)[C@H](C)NC(=O)[C@H](C)NC(=O)[C@H](CCC(N)=O)NC(=O)CNC(=O)[C@H](CCC(=O)O)NC(=O)[C@H](CC(C)C)NC(=O)[C@H](Cc1ccc(O)cc1)NC(=O)[C@H](CO)NC(=O)[C@H](CO)NC(=O)[C@@H](NC(=O)[C@H](CC(=O)O)NC(=O)[C@H](CO)NC(=O)[C@@H](NC(=O)[C@H](Cc1ccccc1)NC(=O)[C@@H](NC(=O)CNC(=O)[C@H](CCC(=O)O)NC(=O)[C@H](C)NC(=O)[C@@H](N)Cc1cnc[nH]1)[C@@H](C)O)[C@@H](C)O)C(C)C)C(=O)N[C@@H](CCC(=O)O)C(=O)N[C@@H](Cc1ccccc1)C(=O)N[C@H](C(=O)N[C@@H](C)C(=O)N[C@@H](Cc1c[nH]c2ccccc12)C(=O)N[C@@H](CC(C)C)C(=O)N[C@H](C(=O)N[C@@H](CCCNC(=N)N)C(=O)NCC(=O)N[C@@H](CCCNC(=N)N)C(=O)NCC(=O)O)C(C)C)[C@@H](C)CC)C(=O)O", "note": "[liraglutide, Liraglutide]", "values": [{"measurement": "geometric mean of the individual apparent clearance estimates", "setting": "[1]; Trial 3", "result": 0.93, "unit": "L/h"}, {"measurement": "dose proportionality of model-derived AUC by dose", "setting": "[1]; obese individuals, 1.2, 1.8, 2.4, 3.0 mg once daily, week 20", "result": "supported dose proportionality of liraglutide up to and including 3.0 mg"}, {"measurement": "CL/F lower than in reference subject", "setting": "[2]; [3]", "result": 29, "unit": "%"}, {"measurement": "liraglutide exposure higher than in reference subject", "setting": "[2]; [3]", "result": 41, "unit": "%"}, {"measurement": "CL/F higher than in reference subject", "setting": "[2]; [4]", "result": 78, "unit": "%"}, {"measurement": "liraglutide exposure lower than in reference subject", "setting": "[2]; [4]", "result": 44, "unit": "%"}, {"measurement": "liraglutide exposure lower in males than in females", "setting": "[2]; comparable body weight", "result": 24, "unit": "%"}, {"measurement": "liraglutide exposure lower in subjects with T2DM than in normoglycaemic subjects", "setting": "[2]; confounded by trial (all T2DM subjects from Trial 2)", "result": 16, "unit": "%"}, {"measurement": "higher exposure in Trial 1 than in Trial 2", "setting": "[2]; liraglutide 3.0 mg", "result": 29, "unit": "%"}, {"measurement": "liraglutide exposure higher in females than males", "setting": "[2]; same/comparable body weight", "result": 32, "unit": "%"}]}
